IC50 data for 27 compounds are collected here from patent US20240317721A1, “PYRAZOLYL DERIVATIVES AS INHIBITORS OF THE KRAS MUTANT PROTEIN” (NOVARTIS AG, priority 2021, published 2024).

SMILES strings stand for the structures.

This assay addresses KRasG12C (M1-K169, biotinylated on the N-terminus) (Homo sapiens (Human), UniProt P01116, G12C). As to the kind of experiment: Covalent competition assay: scintillation proximity assay (SPA) quantifying covalent modification of KRASG12C. Type of assay: binding. As to conditions: competition with radiolabeled covalent probe (Compound B/Compound A), 2 hours incubation, 10 nM KRasG12C. The gist of the method: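 Scintillation proximity readout after streptavidin bead capture (30 min) of biotinylated KRasG12C(M1-K169):GDP, 10 nM final, which was covalently labelled over 2 h by 25 nM radio-probe plus 475 nM cold probe unless blocked by compound.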
Take `C=CC(=O)N1CC2(CC(n3nc(N4CC[C@@H](CN5CCN6C[C@@H](O)C[C@@H]6C5)CC4(C)C)c(-c4c(Cl)c(Cl)cc5[nH]ncc45)c3C)C2)C1` (single isomer, unassigned) [Example 287a]: the IC50 is 307 nM.

`C=CC(=O)N1CC2(CC(n3nc(N4CC[C@@H](CN5CCN6C[C@@H](O)C[C@@H]6C5)CC4(C)C)c(-c4c(Cl)c(Cl)cc5[nH]ncc45)c3C)C2)C1` (single isomer, unassigned) [Example 287b]: the IC50 was 9 nM.

For `C=CC(=O)N1CC2(CC(n3nc(N4CC[C@@H](CN5CCN6CCOC[C@H]6C5)CC4(C)C)c(-c4c(Cl)c(Cl)cc5[nH]ncc45)c3C)C2)C1` (single isomer, unassigned) [Example 288a], the IC50 was 4900 nM.

Turning to `C=CC(=O)N1CC2(CC(n3nc(N4CC[C@@H](CN5CCN6CCOC[C@H]6C5)CC4(C)C)c(-c4c(Cl)c(Cl)cc5[nH]ncc45)c3C)C2)C1` (single isomer, unassigned) [Example 288b], the IC50 amounted to 10 nM.

As to `C=CC(=O)N1CC2(CC(n3nc(N4CC[C@@H](CN5CCN(C(=O)NC)CC5)CC4(C)C)c(-c4c(Cl)c(Cl)cc5[nH]ncc45)c3C)C2)C1` (single isomer, unassigned) [Example 289a], the IC50 is 3300 nM.

Regarding `C=CC(=O)N1CC2(CC(n3nc(N4CC[C@@H](CN5CCN(C(=O)NC)CC5)CC4(C)C)c(-c4c(Cl)c(Cl)cc5[nH]ncc45)c3C)C2)C1` (single isomer, unassigned) [Example 289b], the 50% inhibitory concentration (IC50) is 10 nM.

On to `C=CC(=O)N1CC2(CC(n3nc(N4CC[C@@H](CN5CCN(C6COC6)C[C@@H]5CO)CC4(C)C)c(-c4c(Cl)c(Cl)cc5[nH]ncc45)c3C)C2)C1` (single isomer, unassigned) [Example 290a], for which the IC50 was 3400 nM.

Take `C=CC(=O)N1CC2(CC(n3nc(N4CC[C@@H](CN5CCN(C6COC6)C[C@@H]5CO)CC4(C)C)c(-c4c(Cl)c(Cl)cc5[nH]ncc45)c3C)C2)C1` (single isomer, unassigned) [Example 290b]: the half-inhibitory concentration (IC50) was under 5 nM.

On to `C=CC(=O)N1CC2(CC(n3nc(N4CC[C@@H](CN5CC6(COCCN6C)C5)CC4(C)C)c(-c4c(Cl)c(Cl)cc5[nH]ncc45)c3C)C2)C1` (single isomer, unassigned) [Example 291a], for which the IC50 is over 5000 nM.

Regarding `C=CC(=O)N1CC2(CC(n3nc(N4CC[C@@H](CN5CC6(COCCN6C)C5)CC4(C)C)c(-c4c(Cl)c(Cl)cc5[nH]ncc45)c3C)C2)C1` (single isomer, unassigned) [Example 291b], the half-inhibitory concentration (IC50) came out at 8 nM.

With `C=CC(=O)N1CC2(CC(n3nc(N4CC[C@@H](CN5CCOC[C@@H](O)C5)CC4(C)C)c(-c4c(Cl)c(Cl)cc5[nH]ncc45)c3C)C2)C1` (single isomer, unassigned) [Example 292a], the IC50 turned out to be 1900 nM.

`C=CC(=O)N1CC2(CC(n3nc(N4CC[C@@H](CN5CCOC[C@@H](O)C5)CC4(C)C)c(-c4c(Cl)c(Cl)cc5[nH]ncc45)c3C)C2)C1` (single isomer, unassigned) [Example 292b]: the IC50 worked out at 27 nM.

`C=CC(=O)N1CC2(CC(n3nc(N4CC[C@@H](CN5CC6(O)CC5C6)CC4(C)C)c(-c4c(Cl)c(Cl)cc5[nH]ncc45)c3C)C2)C1` (single isomer, unassigned) [Example 293a]: the IC50 came to 4000 nM.

For the compound `C=CC(=O)N1CC2(CC(n3nc(N4CC[C@@H](CN5CC6(O)CC5C6)CC4(C)C)c(-c4c(Cl)c(Cl)cc5[nH]ncc45)c3C)C2)C1` (single isomer, unassigned) [Example 293b], the IC50 turned out to be 10 nM.

Turning to `C=CC(=O)N1CC2(CC(n3nc(N4CC[C@@H](CN5C[C@@H]6CS(=O)(=O)C[C@@H]6C5)CC4(C)C)c(-c4c(Cl)c(Cl)cc5[nH]ncc45)c3C)C2)C1` (single isomer, unassigned) [Example 294a], the IC50 was determined as 4700 nM.

As to `C=CC(=O)N1CC2(CC(n3nc(N4CC[C@@H](CN5C[C@@H]6CS(=O)(=O)C[C@@H]6C5)CC4(C)C)c(-c4c(Cl)c(Cl)cc5[nH]ncc45)c3C)C2)C1` (single isomer, unassigned) [Example 294b], the IC50 is 10 nM.

With `C=CC(=O)N1CC2(CC(n3nc(N4CC[C@@H](CN5C[C@@H]6CN(C(C)=O)C[C@@H]6C5)CC4(C)C)c(-c4c(Cl)c(Cl)cc5[nH]ncc45)c3C)C2)C1` (single isomer, unassigned) [Example 295a], the IC50 amounted to 2000 nM.

On to `C=CC(=O)N1CC2(CC(n3nc(N4CC[C@@H](CN5C[C@@H]6CN(C(C)=O)C[C@@H]6C5)CC4(C)C)c(-c4c(Cl)c(Cl)cc5[nH]ncc45)c3C)C2)C1` (single isomer, unassigned) [Example 295b], for which the IC50 came to 6 nM.

For `C=CC(=O)N1CC2(CC(n3nc(N4CC[C@@H](CN5CC6(C5)CN(C)C(=O)N6C)CC4(C)C)c(-c4c(Cl)c(Cl)cc5[nH]ncc45)c3C)C2)C1` (single isomer, unassigned) [Example 296a], the IC50 was 392 nM.

As to `C=CC(=O)N1CC2(CC(n3nc(N4CC[C@@H](CN5CC6(C5)CN(C)C(=O)N6C)CC4(C)C)c(-c4c(Cl)c(Cl)cc5[nH]ncc45)c3C)C2)C1` (single isomer, unassigned) [Example 296b], the 50% inhibitory concentration (IC50) was 6 nM.

In the case of `C=CC(=O)N1CC2(CC(n3nc(N4CC[C@@H](CN5CC6(CCN(S(C)(=O)=O)C6)C5)CC4(C)C)c(-c4c(Cl)c(Cl)cc5[nH]ncc45)c3C)C2)C1` (single isomer, unassigned) [Example 297a], the IC50 was over 5000 nM.

Turning to `C=CC(=O)N1CC2(CC(n3nc(N4CC[C@@H](CN5CC6(CCN(S(C)(=O)=O)C6)C5)CC4(C)C)c(-c4c(Cl)c(Cl)cc5[nH]ncc45)c3C)C2)C1` (single isomer, unassigned) [Example 297b], the IC50 was found to be 9 nM.

With `C=CC(=O)N1CC2(CC(n3nc(N4CC[C@@H](CN5CCN(S(C)(=O)=O)CC5)CC4(C)C)c(-c4c(Cl)c(Cl)cc5[nH]ncc45)c3C)C2)C1` (single isomer, unassigned) [Example 298a], the IC50 stood at 1000 nM.

`C=CC(=O)N1CC2(CC(n3nc(N4CC[C@@H](CN5CCN(S(C)(=O)=O)CC5)CC4(C)C)c(-c4c(Cl)c(Cl)cc5[nH]ncc45)c3C)C2)C1` (single isomer, unassigned) [Example 298b]: the IC50 was 27 nM.

Take `C=CC(=O)N1CC2(CC(n3nc(N4CC[C@@H](CN5CCOC6(COC6)C5)CC4(C)C)c(-c4c(Cl)c(C)cc5[nH]ncc45)c3C)C2)C1` (single isomer, unassigned) [Example 299a]: the half-inhibitory concentration (IC50) stood at 793 nM.

Take `C=CC(=O)N1CC2(CC(n3nc(N4CC[C@@H](CN5CCOC6(COC6)C5)CC4(C)C)c(-c4c(Cl)c(C)cc5[nH]ncc45)c3C)C2)C1` (single isomer, unassigned) [Example 299b]: the IC50 was 23 nM.

On to `C=CC(=O)N1CC2(CC(n3nc(N4CC[C@@H](CN5C[C@H](O)C[C@@H](F)C5)CC4(C)C)c(-c4c(Cl)c(Cl)cc5[nH]ncc45)c3C)C2)C1` (single isomer, unassigned) [Example 300a, 1-(6-(4-(5,6-dichloro-1H-indazol-4-yl)-3-((R)-4-(((3R*,5R*)-3-fluoro-5-hydroxypiperidin-1-yl)methyl)-2,2-dimethylpiperidin-1-yl)-5-methyl-1H-pyrazol-1-yl)-2-azaspiro[3.3]heptan-2-yl)prop-2-en-1-one], for which the IC50 is over 5000 nM.
